Measurements published in patent publication US20120178147A1, “MICROBIAL CULTURES AND METHODS FOR ANAEROBIC BIOREMEDIATION” (priority 2009, published 2012).
Like-named read-outs stand apart in the source and are kept apart here.

Assays:
MRSA = details: cited from earlier work
general bacteria = assay: qRT-PCR of general bacteria 16S rRNA genes in DehaloR̂2 cultures; format: cell-based; details: for General bacteria 16S rRNA gene copies, day 22 / General bacteria 16S rRNA gene copies, initial: DehaloR̂2 with 1.5 μM TCC or 35 μM TCS
Protocol: (§1) Quantitative real-time PCR (qRT-PCR) was performed for enumeration of general 16S rRNA genes and Dehalococcoides 16S rRNA genes in culture DehaloR̂2 and Bio-Dechlor INOCULUM. The primers used for general 16S rRNA genes were Bac1055F (5′-ATG GYT GTC GTC ACCT-3′) and Bac1392R (5′-ACG GGC GGT GTG TAC-3′) (Ritalahti et al., 2006), and the probe was Bac16sTaq (FAM-CAA CGA GCG CAA CCC/3-BHQ-1/). The final volume of PCR reactions was 10 μL, and the final concentration of each chemical in a single reaction tube was: 1× RealMasterMix (Fisher Scientific, Pittsburgh, Pa.), 300 nM Probe, 300 nM each Primer, and 130 nM DNA samples. The PCR conditions were as follows: 2 min at 95° C. followed by 40 cycles of 10 s at 95° C., 20 s at 56° C. and 20 s at 68° C. The primers used for Dehalococcoides 16S rRNA genes were Dhc1200F (5′-CTGGAGCTAATCCCCAAAGCT-3′) and Dhc1271R (5′-CAA CTT CAT GCA GGC GGG-3′), and the probe was Dhc1240Pr (FAM-TCCTCAGTTCGGATTGCAGGC TGAA/3-BHQ-1) (He et al., 2003b). The final volume of PCR reactions was 10 μL, and the final concentration of each chemical in a single reaction tube was: 1× RealMasterMix (Fisher Scientific, Pittsburgh, Pa.), 200 nM Probe, 700 nM each Primer, and 130 nM DNA samples. The PCR conditions were as follows: 2 min at 95° C. followed by 40 cycles of 15 s at 95° C., 20 s at 58° C. and 20 s at 68° C.
(§2) Quantitative Real time PCR (qRT-PCR) was carried out in a spectrofluorimetric thermal cycler (Master cycler, epgradient S, Eppendorf). Calibration curves were performed in triplicate and a linear range of 6 orders of magnitude was obtained. Plasmids containing Dehalococcoides strain BAV1 16S rRNA genes were used as standards to construct general 16S rRNA genes and Dehalococcoides 16S rRNA genes calibration curves. The slopes of the calibration curves for general 16S rRNA genes and Dehalococcoides 16S rRNA genes were −3.46 and −3.94, and the Y intercepts were 38 and 44.2, respectively.
(§3) DNA Extraction and Quantitative Real-Time PCR. The BDI cultures and DehaloR^2 cultures were shaken vigorously first and then 10 ml of the mixed liquid was removed with a sterile syringe and dispensed into 10 1.5 ml micro centrifuge tubes. These micro centrifuge tubes were then centrifuged at 13,000 rpm for 15 min in order to make a pellet, and the pellet was used for DNA extraction. Qiagen DNeasy Blood & Tissue Kit with modifications to enhance lysis was used for DNA isolation from cultures. DNA samples were stored at −20° C.
(§4) Quantitative real-time PCR (qRT-PCR) was performed for enumeration of general 16S rRNA genes and Dehalococcoides 16S rRNA genes in BDI culture without TCC&TCS, BDI culture with 1.5 μM TCC, BDI culture with 35 μM TCS, D DehaloR̂2 culture without TCC&TCS, DehaloR^2 culture with 1.5 μM TCC and DehaloR̂2^2 culture with 35 μM TCS.
The primers used for general 16S rRNA genes were Bac1055F (5′-ATGGYTGTCGTCAGCT-3′) and Bac1392R (5′-ACGGGCGGTGTGTAC-3′) (Ritalahti et al., 2006), and the probe was Bac16sTaq (FAM-CAACGAGCGCAACCC/3-BHQ-1/). The final volume of PCR reactions was 10 μL, and the final concentration of each chemical in a single reaction tube was: 1× RealMasterMix (Fisher Scientific, Pittsburgh, Pa.), 300 nM Probe, 300 nM each Primer, and 130 nM DNA samples. The PCR conditions were as follows: 2 min at 95° C. followed by 40 cycles of 10 s at 95° C., 20 s at 56° C. and 20 s at 68° C.
The qRT-PCR was carried out in a spectrofluorimetric thermal cycler (Master cycler, epgradient S, Eppendorf). […]

[1] = system: Gram-negative species and fungi; details: cited from earlier work
[2] = at 25° C.; cited from earlier work
E. coli = details: cited from earlier work
[3] = cited from earlier work
Dehalococcoides = assay: qRT-PCR of Dehalococcoides 16S rRNA genes in BDI cultures; format: cell-based; details: for effect on growth of Dehalococcoides in BDI cultures: 1.5 μM TCC or 35 μM TCS; for Dehalococcoides 16S rRNA gene copies, day 27 / Dehalococcoides 16S rRNA gene copies, initial: BDI with 1.5 μM TCC or 35 μM TCS
Protocol: as §1, §2, §3, §4
The primers used for Dehalococcoides 16S rRNA genes were Dhc1200F (5′-[…]-3′) and Dhc1271R (5′-CAACTTCATGCAGGCGGG-3′), and the probe was Dhc1240Pr (FAM-[…]/3-BHQ-1) (He et al., 2003b). The final volume of PCR reactions was 10 μL, and the final concentration of each chemical in a single reaction tube was: 1× RealMasterMix (Fisher Scientific, Pittsburgh, Pa.), 200 nM Probe, 700 nM each Primer, and 130 nM DNA samples. The PCR conditions were as follows: 2 min at 95° C. followed by 40 cycles of 15 s at 95° C., 20 s at 58° C. and 20 s at 68° C.
as §2, with “The qRT-PCR” for “Quantitative Real time PCR (qRT-PCR)”

[4] = anaerobic conditions, within 70 days; cited from earlier work
[5] = at 25° C., pH 7; cited from earlier work
aquatic organisms = details: according to PBT Profiler; cited from earlier work
P. aeruginosa = details: cited from earlier work
[6] = at 25° C., table values calculated using PBT Profiler and ECOSAR

| SMILES | activity in MIC experiments (MRSA) | General bacteria 16S rRNA gene copies, day 22 (general bacteria) | General bacteria 16S rRNA gene copies, initial (general bacteria) | concentration needed to inhibit Gram-negative species and fungi [1] | Vapor pressure [2] | activity in MIC experiments (E. coli) | Water solubility ([3]; at 20° C.) | Water solubility [3, 6] | Water solubility ([3]; at 25° C., table values calculated using PBT Profiler and ECOSAR, listed as Triclocarban) | effect on growth of Dehalococcoides in BDI cultures (Dehalococcoides) | Dehalococcoides 16S rRNA gene copies, day 27 (Dehalococcoides) | Dehalococcoides 16S rRNA gene copies, initial (Dehalococcoides) | biodegradation in soil [4] | Partition Coefficient [5] | concentration toxic to aquatic organisms (aquatic organisms) | activity in MIC experiments (P. aeruginosa) | General bacteria 16S rRNA gene copies, day 22 relative to initial (general bacteria; DehaloR̂2 with 35 μM TCS) | Water solubility ([3]; at 25° C., table values calculated using PBT Profiler and ECOSAR, listed as Triclosan) |
| --- | --- | --- | --- | --- | --- | --- | --- | --- | --- | --- | --- | --- | --- | --- | --- | --- | --- | --- |
| O=C(Nc1ccc(Cl)cc1)Nc1ccc(Cl)c(Cl)c1 [TCC, 3-(4-chlorophenyl)-1-(3,4-dichlorphenyl) urea] | showed activity | 1.6×10^8 gene copies/ml | 1.3×10^7 gene copies/ml | 1000 mg/L | 3.61 × 10^−9 mm Hg | not | 0.05 mg/L | 0.65 mg/L | 0.65 to 1.55 mg/L | significantly inhibited the growth of Dehalococcoides | 1.9×10^7 gene copies/ml | 6.1×10^7 gene copies/ml | little biodegradation | 4.9 Log Pow | 90 mg/L | not |  |  |
| Oc1cc(Cl)ccc1Oc1ccc(Cl)cc1Cl [TCS, 5-chloro-2-[2,4-dichloro-phenoxy]-phenol] |  | 7.5×10^7 gene copies/ml | 2.2×10^7 gene copies/ml |  | 4.65 × 10^−6 mm Hg |  | <1 mg/L | 4.6 mg/L |  | significantly inhibited the growth of Dehalococcoides | 9.4×10^6 gene copies/ml | 8.9×10^7 gene copies/ml | little biodegradation | 4.8 Log Pow |  |  | 3.5 times | 1.97 to 4.62 mg/L |
